Where two headings read alike, the source gives them in different places.
Tests used:
rat = settings: cited from earlier work
[1] = relative volatility compared to butyl acetate; cited from earlier work
[2] = cited from earlier work
[3] = Solvent compatibility with viscosity-increasing polymer, viscosity of solution: CAB; type: physicochemical; parameters: unit not given here; settings: polymer added at 5% by weight, up to 3 days agitation
[4] = Solvent compatibility with viscosity-increasing polymer, viscosity of solution: MMA; type: physicochemical; parameters: unit not given here; settings: polymer added at 5% by weight, up to 3 days agitation
[5] = Solvent miscibility and compatibility with cyanoacrylate esters (overall); type: physicochemical; settings: observations over 7 days
Method: (§1) Next, the solvents were tested for miscibility and compatibility with cyanoacrylate esters. Briefly, beginning with 3 ml samples each of butyl cyanoacrylate (BCA), octyl cyanoacrylate (OCA) and ethoxyethyl cyanoacrylate (EECA), 3 ml of each solvent was added drop-wise to each cyanoacrylate sample and agitated to aid mixing. Observations of the samples were taken immediately and then at regular intervals over 7 days. […] The remaining 10 solvents were ranked according to their compatibility with the cyanoacrylate esters based primarily on their compatibility with BCA over 7 days, secondarily on their compatibility with OCA, and finally on their miscibility with EECA.

[6] = Solvent miscibility and compatibility with butyl cyanoacrylate; type: physicochemical; parameters: key: V = slightly viscous; VV = viscous; VVV = very viscous; Lyr = layers; Pl = pale; Lt = light; Y = yellow; RX = reacts; Gry = grey; Brn = brown; Blk = black; settings: 3 ml solvent + 3 ml BCA
Method: as §1

[7] = Solvent compatibility with viscosity-increasing polymer, viscosity of solution: IB; type: physicochemical; settings: for Viscosity of solution with IB: polymer added at 5% by weight, up to 3 days agitation
[8] = Solvent compatibility with viscosity-increasing polymer, viscosity of solution: VEE; type: physicochemical; parameters: unit not given here; settings: polymer added at 5% by weight, up to 3 days agitation
[9] = Solvent compatibility with viscosity-increasing polymer, viscosity of solution: Cap; type: physicochemical; settings: polymer added at 5% by weight, up to 3 days agitation
[10] = Solvent miscibility and compatibility with octyl cyanoacrylate; type: physicochemical; parameters: key: V = slightly viscous; VV = viscous; VVV = very viscous; Lyr = layers; Pl = pale; Lt = light; Y = yellow; RX = reacts; Gry = grey; Brn = brown; Blk = black; settings: 3 ml solvent + 3 ml OCA
Method: as §1

[11] = Solvent miscibility and compatibility with ethoxyethyl cyanoacrylate; type: physicochemical; settings: 3 ml solvent + 3 ml EECA
Method: as §1

[12] = Colorant solubility in solvent; settings: for PPM dye soluble: 10 g solvent added to 0.4 g D&C Violet #2, shaken 30 minutes, stood 30 minutes
Method: For the remaining solvents, colorant solubility was assessed in terms of the solubility of D&C Violet #2. Briefly, 10 g of each of the solvents listed in Table 5 was added to 0.4 g of dye in 12 ml test tubes. The samples were shaken for 30 minutes then allowed to stand for 30 minutes. After standing, 5 ml of the top layer was removed and weighed into pre-weighed aluminum weigh boats where the solvent was allowed to evaporate before re-weighing.

In the case of Methyl cyclohexanone, the “TOX (toxicity, LD50)” value (rat; oral dose administered to rat) is listed as 2140 mg/kg, the “VL (volatility)” value [1] is listed as 0.29 and the “VP (vapor pressure)” value ([2]; at 20 ° C.) is listed as 3.3@20 mmHg.

For `CC(C)=O` [Acetone], the “VL (volatility)” value [1] is listed as 7.7, the “Viscosity of solution with CAB” value [3] is listed as 1.8 and the “Viscosity of solution with MMA” value [4] is listed as 2.4. The “Reaction with the cyanoacrylate esters” value [5] was “apparent reactions”, the “BCA compatibility, 2 Day” value [6] was “V” and the “BCA compatibility, 7 Day” value [6] was “VV”. The “VP (vapor pressure)” value ([2]; at 39.5 ° C.) was 400@39.5 mmHg.

In the case of `CCOCCOC(C)=O` [Ethoxyethyl acetate], the “TOX (toxicity, LD50)” value (rat; rat, in vivo, po) is given as 2700 mg/kg, the “VL (volatility)” value [1] is given as −1 and the “VP (vapor pressure)” value ([2]; at 20 ° C.) is given as 2@20 mmHg.

For `COCC(C)O` (stereo not drawn) [Methoxy propanol], the “TOX (toxicity, LD50)” value (rat; oral dose administered to rat) is listed as 8532 mg/kg and the “VL (volatility)” value [1] is listed as 0.3.

For `C=CC(=C)C` [Isoprene], the “TOX (toxicity, LD50)” value (rat; rat, in vivo, po) is given as 2100 mg/kg, the “VL (volatility)” value [1] is given as 28.6 and the “Reaction with the cyanoacrylate esters” value [5] is given as “apparent reactions”. The “BCA compatibility, Time 0” value ([6]; time 0) was “RX” and the “VP (vapor pressure)” value ([2]; at 20 ° C.) was 560@20 mmHg.

In the case of `OCCOCCO` [Diethylene glycol], the “VP (vapor pressure)” value ([2]; at 92 ° C.) is given as 1@92 mmHg.

In the case of `Cc1ccccc1` [Toluene], the “VL (volatility)” value [1] is listed as 2.24, the “Viscosity of solution with IB” value [7] is listed as 20 and the “Viscosity of solution with VEE” value [8] is listed as 3.1. For the same compound, the “VP (vapor pressure)” value ([2]; at 20 ° C.) was 22@20 mmHg and the “Viscosity of solution with Cap” value [9] was 3.7.

For `CCCCCCC` [Heptane], the “TOX (toxicity, LD50)” value (rat; rat, in vivo, po) is given as 3200 mg/kg, the “VL (volatility)” value [1] is given as 4.3 and the “OCA compatibility, 2 Day” value [10] is given as “VV”. For the same compound, the “OCA compatibility, 7 Day” value [10] was “VV”, the Dissolution of polyisobutylene ([7]; 5% by weight, up to 3 days) was “partially dissolve” and the “Viscosity of solution with IB” value [7] was 11. The “BCA compatibility, 1 Day” value [6] was “PlY”, the “BCA compatibility, 2 Day” value [6] was “LtY” and the “BCA compatibility, 7 Day” value [6] was “LtY”. The “Viscosity of solution with VEE” value [8] was 1.5, the “VP (vapor pressure)” value ([2]; at 20 ° C.) was 40@20 mmHg and the “EECA compatibility, 1 Day” value [11] was 2Lyr. The “EECA compatibility, 2 Day” value [11] was 2Lyr, the “EECA compatibility, 7 Day” value [11] was 2Lyr and the “EECA compatibility, Time 0” value [11] was 2Lyr.

In the case of `CC(=O)C(C)C` [3-Methyl 2-butanone], the “TOX (toxicity, LD50)” value (rat; oral dose administered to rat) is listed as 3078 mg/kg, the “VL (volatility)” value [1] is listed as 2.9 and the “OCA compatibility, 1 Day” value [10] is listed as “VV”. The “OCA compatibility, 2 Day” value [10] was “VV”, the “OCA compatibility, 7 Day” value [10] was “VV” and the “Reaction with the cyanoacrylate esters” value [5] was “apparent reactions”. For the same compound, the “BCA compatibility, 1 Day” value [6] was “Gry”, the “BCA compatibility, 2 Day” value [6] was “Blk” and the “BCA compatibility, 7 Day” value [6] was “Blk”. The “VP (vapor pressure)” value ([2]; at 20 ° C.) was 42@20 mmHg, the “EECA compatibility, 1 Day” value [11] was “LtBrn” and the “EECA compatibility, 2 Day” value [11] was “LtGry”. The “EECA compatibility, 7 Day” value [11] was “LtGry”.

In the case of `CC(C)C(=O)C(C)C` [Diisopropyl ketone], the “TOX (toxicity, LD50)” value (rat; rat, in vivo, po) is listed as 3536 mg/kg, the “VL (volatility)” value [1] is listed as 0.17 and the “VP (vapor pressure)” value ([2]; at 37 ° C.) is listed as 13.3@37^ mmHg.

For `C1CCOC1` [THF, tetrahydrofuran], the “VL (volatility)” value [1] is listed as 8, the “OCA compatibility, 1 Day” value [10] is listed as “VV” and the “OCA compatibility, 2 Day” value [10] is listed as “VV”. The “OCA compatibility, 7 Day” value [10] was “VV”, the “Viscosity of solution with CAB” value [3] was 3.1 and the “Viscosity of solution with MMA” value [4] was 5.3. For the same compound, the “VP (vapor pressure)” value ([2]; at 20 ° C.) was 129@20 mmHg.

In the case of `CC(=O)CC(C)(C)O` [Diacetone alcohol], the “TOX (toxicity, LD50)” value (rat; oral dose administered to rat) is listed as 4000 mg/kg, the “VL (volatility)” value [1] is listed as 0.14 and the “VP (vapor pressure)” value ([2]; at 20 ° C.) is listed as 0.95@20^ mmHg.

In the case of `CCOC(C)=O` [Ethyl acetate], the “TOX (toxicity, LD50)” value (rat; oral dose administered to rat) is listed as 5620 mg/kg, the “VL (volatility)” value [1] is listed as 6 and the PPM dye soluble [12] is listed as 3400 PPM. For the same compound, the “OCA compatibility, 2 Day” value [10] was “V?”, the “OCA compatibility, 7 Day” value [10] was “VV” and the “Viscosity of solution with CAB” value [3] was 2.3. For the same compound, the “Viscosity of solution with MMA” value [4] was 4.7.

In the case of `CC(=O)OC(C)(C)C` [t-Butyl acetate], the “TOX (toxicity, LD50)” value (rat; oral dose administered to rat) is listed as 13400 mg/kg and the “VL (volatility)” value [1] is listed as 1.5.

In the case of `CC(=O)CC(C)C` [Methyl isobutyl ketone], the “TOX (toxicity, LD50)” value (rat; oral dose administered to rat) is given as 1600 mg/kg, the “VL (volatility)” value [1] is given as 1.6 and the “VP (vapor pressure)” value ([2]; at 20 ° C.) is given as 16@20 mmHg.

In the case of `CC(C)CC(=O)CC(C)C` [Diisobutyl ketone], the “TOX (toxicity, LD50)” value (rat; rat, in vivo, po) is listed as 5750 mg/kg.

In the case of `CCCCCC` [Hexane], the “TOX (toxicity, LD50)” value (rat; rat, in vivo, po) is given as 28710 mg/kg, the PPM dye soluble [12] is given as 500 PPM and the “Dye solubility, suitability” value ([12]; D&C Violet #2) is given as “insufficient dye solubility”. For the same compound, the “Viscosity of solution with IB” value [7] was 7.7, the “Viscosity of solution with VEE” value [8] was 0.9 and the “VP (vapor pressure)” value ([2]; at 20 ° C.) was 132@20 mmHg. The “EECA compatibility, 1 Day” value [11] was 2Lyr, the “EECA compatibility, 2 Day” value [11] was 2Lyr and the “EECA compatibility, 7 Day” value [11] was 2Lyr. For the same compound, the “EECA compatibility, Time 0” value [11] was 2Lyr.

Source: patent publication US20150136150A1, “DURABLE SKIN MARKING COMPOSITIONS” (OP-MARKS, INC., priority 2011, published 2015)
